Assay in all cases: biochemical
What all share (design): Eurofins DiscoverX kinase panel, competitive binding assay at 1 uM, percent of DMSO control
What all share (conditions): competitive binding, percent of DMSO control

One test addresses T1, JNK3 (Homo sapiens, UniProt P53779).
T1 construct: gene MAPK10
The gist of the method: (§1)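 Competitive binding assay across a 96-kinase panel with KIF18A compounds at 1 µM; values given as percentage of control (POC), single experiment.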

In a further test the target is NEK4 (Homo sapiens, UniProt P51957). The gist of the method:
as §1

The target in another test is LCK (Homo sapiens, UniProt P06239). The gist of the method: as §1
A further test concerns the target PRKAA1 (Homo sapiens, UniProt Q13131). The gist of the method:
as §1

The target in another test is TGFBR2 (Homo sapiens, UniProt P37173). Summed up:
as §1

Another test deals with CDK8 (Homo sapiens, UniProt P49336). The gist of the method:
as §1

For the next test, the target named is BTK (Homo sapiens, UniProt Q06187). Summed up:
as §1

The next test has as its target T2, Aurora 2 (Homo sapiens, UniProt O14965).
T2 construct: gene AURKA
T2 sequence (O14965 1-403): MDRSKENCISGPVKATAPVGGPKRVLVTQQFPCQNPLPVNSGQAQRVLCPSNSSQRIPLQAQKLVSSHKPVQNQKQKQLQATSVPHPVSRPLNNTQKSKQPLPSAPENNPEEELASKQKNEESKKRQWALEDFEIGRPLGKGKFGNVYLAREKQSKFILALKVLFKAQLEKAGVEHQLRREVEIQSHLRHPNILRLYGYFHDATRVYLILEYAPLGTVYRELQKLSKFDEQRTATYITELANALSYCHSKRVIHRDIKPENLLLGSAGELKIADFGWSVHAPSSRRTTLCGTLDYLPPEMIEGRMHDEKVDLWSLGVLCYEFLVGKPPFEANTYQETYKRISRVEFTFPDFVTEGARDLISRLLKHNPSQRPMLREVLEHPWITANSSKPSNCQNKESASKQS
Summed up:
as §1

Another test concerns the target bRAF (Homo sapiens, UniProt P15056). The gist of the method: as §1
The next test concerns the target T3, PI3K alpha (Homo sapiens, UniProt P42336).
T3 construct: gene PIK3CA
Summed up: as §1

For another test, the target named is T4, PAK 2 (Homo sapiens, UniProt Q13177).
T4 construct: gene PAK2
The gist of the method:
as §1

The target of the next test is MARK1 (Homo sapiens, UniProt Q9P0L2). Summed up:
as §1

The mark [1] stands for this setting: read-out: Kinome Profiling performed by Eurofins DiscoverX / AM-0277, 1.0 µM / POC.
Setting [2] is: read-out: Kinome Profiling performed by Eurofins DiscoverX / AM-1882, 1.0 µM / POC.
Where [3] appears, read: read-out: Kinome Profiling performed by Eurofins DiscoverX / AM-5308, 1.0 µM / POC.

Molecules are shown by their SMILES. Like-named read-outs stand apart in the source and are kept apart here.

Sequence of LCK (P06239 whole entry): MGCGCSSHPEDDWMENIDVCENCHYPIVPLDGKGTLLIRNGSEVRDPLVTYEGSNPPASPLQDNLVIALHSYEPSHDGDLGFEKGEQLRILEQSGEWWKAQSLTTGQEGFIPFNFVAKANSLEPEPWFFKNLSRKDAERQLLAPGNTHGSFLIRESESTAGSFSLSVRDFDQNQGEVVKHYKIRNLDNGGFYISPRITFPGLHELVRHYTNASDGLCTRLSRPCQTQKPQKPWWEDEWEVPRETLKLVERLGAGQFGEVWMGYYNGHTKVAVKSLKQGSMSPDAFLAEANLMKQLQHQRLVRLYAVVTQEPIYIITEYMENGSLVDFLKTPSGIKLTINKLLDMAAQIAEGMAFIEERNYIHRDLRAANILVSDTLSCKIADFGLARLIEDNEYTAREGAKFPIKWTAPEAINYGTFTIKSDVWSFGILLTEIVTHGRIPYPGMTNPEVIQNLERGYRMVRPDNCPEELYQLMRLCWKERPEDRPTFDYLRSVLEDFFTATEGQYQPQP
Sequence of MARK1 (Q9P0L2 whole entry): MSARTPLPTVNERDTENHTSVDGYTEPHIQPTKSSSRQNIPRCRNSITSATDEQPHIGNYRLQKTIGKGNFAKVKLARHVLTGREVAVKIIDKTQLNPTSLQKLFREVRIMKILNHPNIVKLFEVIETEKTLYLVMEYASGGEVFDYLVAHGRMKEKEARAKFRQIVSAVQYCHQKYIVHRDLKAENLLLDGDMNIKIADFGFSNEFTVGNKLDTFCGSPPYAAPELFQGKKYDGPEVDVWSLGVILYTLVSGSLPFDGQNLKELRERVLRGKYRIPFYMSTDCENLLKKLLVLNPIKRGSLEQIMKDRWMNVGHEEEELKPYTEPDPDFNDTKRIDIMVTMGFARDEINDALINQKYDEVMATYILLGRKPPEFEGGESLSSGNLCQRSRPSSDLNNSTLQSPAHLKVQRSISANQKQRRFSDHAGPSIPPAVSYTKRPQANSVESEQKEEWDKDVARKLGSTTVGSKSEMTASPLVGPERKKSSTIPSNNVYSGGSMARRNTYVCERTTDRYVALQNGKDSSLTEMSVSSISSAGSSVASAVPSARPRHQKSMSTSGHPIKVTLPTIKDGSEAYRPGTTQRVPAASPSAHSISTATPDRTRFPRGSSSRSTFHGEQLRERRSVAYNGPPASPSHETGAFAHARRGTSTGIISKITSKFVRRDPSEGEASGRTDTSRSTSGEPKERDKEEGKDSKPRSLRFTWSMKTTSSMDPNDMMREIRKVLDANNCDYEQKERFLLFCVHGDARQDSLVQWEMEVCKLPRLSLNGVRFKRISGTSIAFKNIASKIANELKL
Sequence of CDK8 (P49336 whole entry): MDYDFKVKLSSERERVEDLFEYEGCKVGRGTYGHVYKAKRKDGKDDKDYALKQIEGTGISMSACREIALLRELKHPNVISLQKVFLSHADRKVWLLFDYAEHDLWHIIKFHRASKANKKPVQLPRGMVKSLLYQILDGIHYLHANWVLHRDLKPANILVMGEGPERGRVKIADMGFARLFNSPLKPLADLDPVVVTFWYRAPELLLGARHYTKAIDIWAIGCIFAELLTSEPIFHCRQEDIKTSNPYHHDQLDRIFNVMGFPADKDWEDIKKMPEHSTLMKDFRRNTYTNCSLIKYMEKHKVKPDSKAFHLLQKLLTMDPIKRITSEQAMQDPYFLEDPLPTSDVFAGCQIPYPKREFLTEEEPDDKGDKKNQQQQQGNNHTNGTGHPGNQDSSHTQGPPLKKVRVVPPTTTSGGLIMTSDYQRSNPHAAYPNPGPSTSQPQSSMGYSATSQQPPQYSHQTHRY
T1 sequence (P53779 whole entry): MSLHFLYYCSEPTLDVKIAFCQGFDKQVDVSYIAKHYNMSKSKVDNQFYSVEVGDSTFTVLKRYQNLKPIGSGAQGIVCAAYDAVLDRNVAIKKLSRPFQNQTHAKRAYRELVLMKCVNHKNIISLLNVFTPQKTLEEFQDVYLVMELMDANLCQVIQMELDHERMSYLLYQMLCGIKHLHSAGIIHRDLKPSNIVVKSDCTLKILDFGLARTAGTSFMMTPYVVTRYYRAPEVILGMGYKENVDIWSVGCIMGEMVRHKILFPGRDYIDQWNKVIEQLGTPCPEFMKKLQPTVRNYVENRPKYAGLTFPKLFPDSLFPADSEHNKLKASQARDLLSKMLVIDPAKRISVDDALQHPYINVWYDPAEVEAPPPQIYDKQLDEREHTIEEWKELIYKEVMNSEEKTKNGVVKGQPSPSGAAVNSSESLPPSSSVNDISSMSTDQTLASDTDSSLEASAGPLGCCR
T3 sequence (P42336 whole entry): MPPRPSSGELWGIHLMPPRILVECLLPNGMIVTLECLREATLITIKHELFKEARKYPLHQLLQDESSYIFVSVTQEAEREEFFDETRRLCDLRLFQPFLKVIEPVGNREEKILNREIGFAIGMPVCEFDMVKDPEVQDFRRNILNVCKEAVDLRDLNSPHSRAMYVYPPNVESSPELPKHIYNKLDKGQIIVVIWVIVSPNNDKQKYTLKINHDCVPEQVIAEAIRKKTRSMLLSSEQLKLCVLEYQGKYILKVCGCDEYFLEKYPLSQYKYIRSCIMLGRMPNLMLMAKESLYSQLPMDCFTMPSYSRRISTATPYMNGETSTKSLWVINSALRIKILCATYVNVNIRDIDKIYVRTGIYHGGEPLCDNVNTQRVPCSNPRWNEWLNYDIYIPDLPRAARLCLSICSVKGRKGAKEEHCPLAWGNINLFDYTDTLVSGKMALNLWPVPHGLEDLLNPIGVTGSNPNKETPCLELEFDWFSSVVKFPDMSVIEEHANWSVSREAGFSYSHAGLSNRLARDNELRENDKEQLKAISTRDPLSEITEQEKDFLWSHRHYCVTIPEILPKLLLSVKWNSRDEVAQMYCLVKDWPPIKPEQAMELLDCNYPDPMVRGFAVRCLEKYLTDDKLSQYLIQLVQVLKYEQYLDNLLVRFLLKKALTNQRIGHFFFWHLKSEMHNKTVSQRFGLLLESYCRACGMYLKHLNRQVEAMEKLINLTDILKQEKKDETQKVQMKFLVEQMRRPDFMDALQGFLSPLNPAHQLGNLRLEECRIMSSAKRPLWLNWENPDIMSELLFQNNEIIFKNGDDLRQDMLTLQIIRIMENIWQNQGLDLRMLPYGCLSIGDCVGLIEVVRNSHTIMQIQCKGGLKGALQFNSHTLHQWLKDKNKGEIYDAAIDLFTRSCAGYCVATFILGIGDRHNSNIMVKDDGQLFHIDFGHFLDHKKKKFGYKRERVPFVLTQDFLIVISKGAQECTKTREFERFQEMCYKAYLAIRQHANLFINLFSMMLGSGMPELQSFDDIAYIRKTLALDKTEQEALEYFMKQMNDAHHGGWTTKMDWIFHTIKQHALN
Sequence of BTK (Q06187 whole entry): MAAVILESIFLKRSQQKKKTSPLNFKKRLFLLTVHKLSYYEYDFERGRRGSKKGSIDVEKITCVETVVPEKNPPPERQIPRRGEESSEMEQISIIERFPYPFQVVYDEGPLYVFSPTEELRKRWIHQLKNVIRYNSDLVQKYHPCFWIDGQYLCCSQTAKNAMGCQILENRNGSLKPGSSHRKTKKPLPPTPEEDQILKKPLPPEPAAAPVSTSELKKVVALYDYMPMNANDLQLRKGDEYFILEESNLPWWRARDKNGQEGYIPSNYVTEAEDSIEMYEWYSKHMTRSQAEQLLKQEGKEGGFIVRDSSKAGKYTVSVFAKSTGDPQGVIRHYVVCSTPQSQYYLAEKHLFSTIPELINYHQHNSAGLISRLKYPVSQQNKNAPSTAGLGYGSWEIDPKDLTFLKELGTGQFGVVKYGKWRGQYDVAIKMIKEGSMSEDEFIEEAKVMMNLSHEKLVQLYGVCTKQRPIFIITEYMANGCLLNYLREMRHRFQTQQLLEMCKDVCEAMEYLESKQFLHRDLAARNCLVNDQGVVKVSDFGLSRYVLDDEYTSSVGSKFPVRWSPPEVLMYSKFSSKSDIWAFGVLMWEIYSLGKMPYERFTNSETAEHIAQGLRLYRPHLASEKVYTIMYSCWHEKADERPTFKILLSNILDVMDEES
T4 sequence (Q13177 whole entry): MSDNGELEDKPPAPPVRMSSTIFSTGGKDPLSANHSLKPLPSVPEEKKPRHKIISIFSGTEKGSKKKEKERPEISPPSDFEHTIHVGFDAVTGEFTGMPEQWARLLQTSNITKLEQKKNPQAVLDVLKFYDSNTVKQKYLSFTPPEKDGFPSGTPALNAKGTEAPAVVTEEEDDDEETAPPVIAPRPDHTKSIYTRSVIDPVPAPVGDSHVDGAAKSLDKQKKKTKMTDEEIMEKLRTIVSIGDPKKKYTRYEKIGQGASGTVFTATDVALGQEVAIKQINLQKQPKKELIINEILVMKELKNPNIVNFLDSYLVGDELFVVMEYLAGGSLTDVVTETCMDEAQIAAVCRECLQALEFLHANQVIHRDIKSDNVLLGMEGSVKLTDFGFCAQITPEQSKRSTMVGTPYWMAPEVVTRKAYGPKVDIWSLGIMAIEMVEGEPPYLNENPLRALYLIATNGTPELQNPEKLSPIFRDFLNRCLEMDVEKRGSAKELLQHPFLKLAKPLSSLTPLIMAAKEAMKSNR
Sequence of TGFBR2 (P37173 whole entry): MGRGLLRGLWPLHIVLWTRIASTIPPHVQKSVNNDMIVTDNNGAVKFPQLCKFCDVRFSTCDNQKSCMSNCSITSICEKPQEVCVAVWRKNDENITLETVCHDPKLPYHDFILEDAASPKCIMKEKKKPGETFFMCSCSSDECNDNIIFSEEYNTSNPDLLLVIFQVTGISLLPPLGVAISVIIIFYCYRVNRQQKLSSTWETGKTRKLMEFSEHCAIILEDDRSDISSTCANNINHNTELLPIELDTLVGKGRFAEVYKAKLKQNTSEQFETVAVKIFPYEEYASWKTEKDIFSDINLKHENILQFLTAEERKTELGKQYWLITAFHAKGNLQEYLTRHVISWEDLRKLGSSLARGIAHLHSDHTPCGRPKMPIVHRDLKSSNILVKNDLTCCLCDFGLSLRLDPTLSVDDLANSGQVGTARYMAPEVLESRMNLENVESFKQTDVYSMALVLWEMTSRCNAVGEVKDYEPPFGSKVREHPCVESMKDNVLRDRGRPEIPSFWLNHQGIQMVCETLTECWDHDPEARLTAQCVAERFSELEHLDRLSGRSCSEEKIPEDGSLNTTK

For `CC(C)(CO)Nc1ccc(C(=O)Nc2cccc(S(=O)(=O)C3CCCC3)c2)c(N2CCC3(CC2)CC3)n1` [AM-0277], the remaining activity at 1 µM was determined as 100% on JNK3 (setting [1]); 100% on NEK4 (setting [1]); 92% on LCK (setting [1]); 96% at PRKAA1 (setting [1]); 75% at TGFBR2 (setting [1]); 70% at CDK8 (setting [1]). For the same compound, the remaining activity at 1 µM amounted to 100% on BTK (setting [1]); 100% on Aurora 2 (setting [1]); 100% on bRAF (setting [1]); 100% on PI3K alpha (setting [1]); 100% on PAK 2 (setting [1]); 96% on MARK1 (setting [1]).
As for `CC(C)(C)NS(=O)(=O)c1cccc(NC(=O)c2ccc(S(=O)(=O)NC(C)(C)C)cc2N2CCC3(CC2)CC3)c1` [AM-1882], the remaining activity at 1 µM at JNK3 (setting [2]) stood at 82%; on NEK4 (setting [2]), 89%; at LCK (setting [2]), 95%; at PRKAA1 (setting [2]), 100%; at TGFBR2 (setting [2]), 99.5%; on CDK8 (setting [2]), 34.5%. The remaining activity at 1 µM at BTK (setting [2]) is 100%; on Aurora 2 (setting [2]), 100%; at bRAF (setting [2]), 94.5%; on PI3K alpha (setting [2]) it was 100%; at PAK 2 (setting [2]) it was 100%; at MARK1 (setting [2]), 100%.
With `C[C@@H]1CN(c2cccc(NC(=O)c3ccc(NS(=O)(=O)CCO)cc3N3CCC4(CC3)CC4)n2)CCO1` [AM-5308], the remaining activity at 1 µM on JNK3 (setting [3]) amounted to 88.5%; at NEK4 (setting [3]), 100%; on LCK (setting [3]), 92%; at PRKAA1 (setting [3]), 97%; on TGFBR2 (setting [3]) it was 100%; on CDK8 (setting [3]) it was 87%. Further, the remaining activity at 1 µM was found to be 98.5% at BTK (setting [3]); 100% at Aurora 2 (setting [3]); 92.5% at bRAF (setting [3]); 91.5% at PI3K alpha (setting [3]); 66.5% at PAK 2 (setting [3]); 98.5% at MARK1 (setting [3]).
